Here are results for 101 compounds from ChEMBL document CHEMBL3507680, “University of Dundee, Gates Library screen for HepG2 cell viability”.

The data set can be described thus: Human HepG2 cell viability assay in 384 well format. The data set is classed as toxicity, cell-based. Details: dose 125 nL, time 70.5 hour; cytotoxicity at 70.5 h: concentration not given beside the values. Conditions: HepG2 cells, read-out: Inhibition.

With `COc1ccc(CNCc2c(C(C)C)nn(C)c2N(C)C)cn1`, the cytotoxicity at 70.5 h was 0.065%.

In the case of `Cc1nc(-c2ccsc2)ccc1C(=O)NCCN1CCN(C)CC1`, the cytotoxicity at 70.5 h came to 0.295%.

As for `Cc1nc(-c2ccsc2)ccc1C(=O)NCCCN1CCOCC1`, the cytotoxicity at 70.5 h was -5.66%.

Turning to `CCNC(=O)CN1CCN(Cc2nc3c(F)cccc3n2CC)CC1`, the cytotoxicity at 70.5 h came to 0.0175%.

For `O=C(CN1CCC(c2ccccc2)C1)NCC(F)(F)F` (stereo unspecified), the cytotoxicity at 70.5 h amounted to 1.22%.

`O=C(Cc1c(F)cccc1Cl)N1CCC(Nc2cccnn2)CC1`: the cytotoxicity at 70.5 h is -1.25%.

Consider `CCNc1cc2c(nn1)CCN(C(=O)c1cccc(CSC)c1)C2`, for which the cytotoxicity at 70.5 h was -3.17%.

Take `CCNc1cc2c(nn1)CCN(C(=O)c1ccc(C(N)=O)cc1)C2`: the cytotoxicity at 70.5 h turned out to be 20.2%.

For `COCC(c1cccc(C(F)(F)F)c1)N(C)C(=O)c1ccoc1` (stereo unspecified), the cytotoxicity at 70.5 h was -3.47%.

Take `Cc1noc(C)c1CC(=O)N1CCC(Nc2cccnn2)CC1`: the cytotoxicity at 70.5 h came to 20.6%.

With `Cc1cnn(CCNCc2csc(-c3ccc(C(N)=O)cc3)n2)c1`, the cytotoxicity at 70.5 h is -1.79%.

With `Cc1cc(NC(=O)CN2CCn3c(nnc3C3CC3)C2)on1`, the cytotoxicity at 70.5 h was -2.62%.

Take `O=C(CSc1ccccc1F)NS(=O)(=O)c1ccc2c(c1)OCCO2`: the cytotoxicity at 70.5 h was -0.308%.

In the case of `Cc1noc(C)c1CC(=O)N1CCCN(Cc2cscn2)CC1`, the cytotoxicity at 70.5 h was -2.59%.

As to `Cc1nc(C)n(CC2CCCCN2Cc2nc(-c3ccco3)no2)n1` (stereo unspecified), the cytotoxicity at 70.5 h was -5.26%.

Regarding `Cc1nn(C)c(N2CCOCC2)c1CNCc1cscn1`, the cytotoxicity at 70.5 h is -9.09%.

Take `Cc1cc(C)n(CC2CCCN2C(=O)CCc2ccncc2)n1` (stereo unspecified): the cytotoxicity at 70.5 h is -6.13%.

Take `Cc1nc(CNCc2c(C(C)C)nn(C)c2N2CCOCC2)cs1`: the cytotoxicity at 70.5 h was -7.63%.

As to `Cc1nc(C)n(CC2CCCN2Cc2nc(-c3ccsc3)no2)n1` (stereo unspecified), the cytotoxicity at 70.5 h is 12.8%.

`Cc1cccc(-c2noc(CN3CCOC(Cn4cccn4)C3)n2)c1` (stereo unspecified): the cytotoxicity at 70.5 h was -11.5%.

As for `Cc1noc(C)c1CCC(=O)N1CCCN(Cc2cccs2)CC1`, the cytotoxicity at 70.5 h was -6%.

On to `CSC(C)C(=O)NCc1ccnc(N2CCN(C)CC2)c1` (stereo unspecified), for which the cytotoxicity at 70.5 h was -7.04%.

For the compound `COc1ccc(CNCC2CNc3cc(C)nn3C2)cn1` (stereo unspecified), the cytotoxicity at 70.5 h was -2.49%.

Take `Cc1csc(N2CCN(C(=O)C3(C#N)CCCCC3)CC2)n1`: the cytotoxicity at 70.5 h was -9.16%.

On to `CC(C(=O)NCc1ccc(N2CCN(C)CC2)nc1)n1cccn1` (stereo unspecified), for which the cytotoxicity at 70.5 h was -6.16%.

With `Cc1cc2n(n1)CC(CNCc1ccc(Oc3ccccc3)nc1)CN2` (stereo unspecified), the cytotoxicity at 70.5 h was found to be 21.7%.

For the compound `Cc1cc2n(n1)CC(CNCc1ccc(-n3cccn3)cc1)CN2` (stereo unspecified), the cytotoxicity at 70.5 h is -0.128%.

Turning to `CC(NCc1ccsc1)c1ccc2c(c1)NC(=O)CO2` (stereo unspecified), the cytotoxicity at 70.5 h is -13.9%.

For the compound `c1cncc(-c2noc(CN3CCOC(Cn4cccn4)C3)n2)c1` (stereo unspecified), the cytotoxicity at 70.5 h was -4.62%.

Turning to `Cc1nnc2n1CCN(Cc1ncc(-c3ccccc3)o1)C2`, the cytotoxicity at 70.5 h was -9.8%.

Regarding `COC(=O)c1cc(C(=O)N2CCC(C)CC2)n(-c2ccccc2)n1`, the cytotoxicity at 70.5 h was -6.41%.

For the compound `Cc1noc(C)c1C(C)C(=O)N1CCCN(Cc2cscn2)CC1` (stereo unspecified), the cytotoxicity at 70.5 h was -9.23%.

Consider `CCc1nccn1C1CCCN(C(=O)c2ccc(NC3CC3)nc2)C1` (stereo unspecified), for which the cytotoxicity at 70.5 h was -2.23%.

As to `Cc1cc(C)n(CC2CCCN2C(=O)CCNc2ncccn2)n1` (stereo unspecified), the cytotoxicity at 70.5 h was -4.55%.

Consider `O=C(c1ccc(NC2CC2)nc1)N1CCCC(n2ccnc2)C1` (stereo unspecified), for which the cytotoxicity at 70.5 h is -12.9%.

For `CCc1nnc2n1CCN(Cc1ncc(-c3ccc(Cl)cc3)o1)C2`, the cytotoxicity at 70.5 h is -7.58%.

In the case of `Cc1nnc2n1CCN(Cc1ncc(-c3ccc(F)cc3)o1)C2`, the cytotoxicity at 70.5 h was -1.84%.

With `Cc1ncc(CN2CCCN(Cc3noc(C4CC4)n3)CC2)s1`, the cytotoxicity at 70.5 h worked out at 23.6%.

As to `CC(C)OCCN1CCC(C(=O)c2cc(F)ccc2F)CC1`, the cytotoxicity at 70.5 h was determined as 25%.

As for `CCOCCN1CCC(C(=O)c2cc(F)ccc2F)CC1`, the cytotoxicity at 70.5 h worked out at 17.7%.

In the case of `CCc1ccc(C(=O)N2CCN(CC(O)CC)CC2)o1` (stereo unspecified), the cytotoxicity at 70.5 h is 46.5%.

Consider `Cc1nc(CN2CCCC(NCc3cnc(C(C)(C)C)s3)C2)no1` (stereo unspecified), for which the cytotoxicity at 70.5 h amounted to 2.91%.

With `O=C(CN1CCCC1c1noc(C2CC2)n1)N1CCc2ccccc21` (stereo unspecified), the cytotoxicity at 70.5 h was -7.43%.

As for `CCc1ncc2c(n1)CN(Cc1cccc(OCC(N)=O)c1)CC2`, the cytotoxicity at 70.5 h amounted to 1.32%.

For the compound `CN(C)CC(=O)N1CCN(CC(O)c2ccc(F)cc2)CC1` (stereo unspecified), the cytotoxicity at 70.5 h was -1.76%.

On to `C=C(C)CN1CCC(C(=O)c2cc(F)ccc2F)CC1`, for which the cytotoxicity at 70.5 h is 0.664%.

With `CC(C)c1nc(C2CCCN(C(=O)CCn3ccccc3=O)C2)no1` (stereo unspecified), the cytotoxicity at 70.5 h worked out at 22.5%.

`Cc1nc(C2CCCN2CC(=O)N2CCc3ccccc32)no1` (stereo unspecified): the cytotoxicity at 70.5 h was determined as 21.3%.

Take `CCc1noc(CNCCn2cc(C)cn2)n1`: the cytotoxicity at 70.5 h is -3.69%.

Consider `CCOc1ccccc1OC1CCN(C(=O)c2[nH]nc(C)c2Br)CC1`, for which the cytotoxicity at 70.5 h worked out at 0.076%.

On to `CCOc1ccccc1N1CCN(C(=O)c2cc[nH]n2)CC1`, for which the cytotoxicity at 70.5 h was determined as 0.935%.

For `Cc1cc(C)c(CNC(=O)NCc2ccc(F)c(C)c2)c(=O)[nH]1`, the cytotoxicity at 70.5 h is -0.902%.

Consider `Cc1cc(C)c(CNC(=O)NCc2ccncc2)c(=O)[nH]1`, for which the cytotoxicity at 70.5 h is -0.477%.

`O=C(c1ccccc1)N1CCN(CC(O)c2ccc(F)cc2)CC1` (stereo unspecified): the cytotoxicity at 70.5 h is -11%.

As to `O=C(Cc1ccc(F)cc1)N1CCN(CC(O)c2ccccc2)CC1` (stereo unspecified), the cytotoxicity at 70.5 h is -4.51%.

`NC(=O)C1CCN(C(=O)NCc2cccnc2OCC(F)(F)F)C1` (stereo unspecified): the cytotoxicity at 70.5 h was -1.73%.

For `c1ccc(-c2nc(CNCCn3cccn3)cs2)nc1`, the cytotoxicity at 70.5 h was found to be 19.2%.

As for `CCc1ccc(C(=O)N2CCN(CC(O)c3ccccc3)CC2)o1` (stereo unspecified), the cytotoxicity at 70.5 h is 1.67%.

Take `Cc1nc(C2CCCN(C(=O)CCn3ccccc3=O)C2)no1` (stereo unspecified): the cytotoxicity at 70.5 h is -3.24%.

For the compound `CCc1nc(C2CCCN2CCC(=O)N2CCc3ccccc32)no1` (stereo unspecified), the cytotoxicity at 70.5 h was 20.5%.

As to `Cc1nc(C2CCCN(C(=O)c3cc4c(s3)CCCC4)C2)no1` (stereo unspecified), the cytotoxicity at 70.5 h was 5.35%.

Turning to `CCc1nc2n(n1)CC(NCC(=O)Nc1oc(C)c(C)c1C#N)CC2` (stereo unspecified), the cytotoxicity at 70.5 h is 7.08%.

On to `CCc1c(C(=O)N2CCN(c3ncccn3)CC2)cnn1C(C)(C)C`, for which the cytotoxicity at 70.5 h is -2.98%.

For `Cc1ccc(CNC(=O)Nc2nnc(C)s2)cn1`, the cytotoxicity at 70.5 h is -5.53%.

For the compound `CCc1ccc(CNC(=O)N2CCN(Cc3cc(C)no3)CC2)s1`, the cytotoxicity at 70.5 h is 19.6%.

Regarding `Cc1cc(CN2CCN(C(=O)NCc3nc(C)cs3)CC2)on1`, the cytotoxicity at 70.5 h was -11.7%.

Turning to `O=C(NCCn1ccnc1)c1ccn(-c2cccc(F)c2)n1`, the cytotoxicity at 70.5 h was 12.4%.

Take `O=C(CCNc1ncccn1)NCCOc1ccc2c(c1)CCC2`: the cytotoxicity at 70.5 h was -16.3%.

Regarding `COc1cc(CCC(=O)NCC2CCCN2C)ccc1OCC(F)(F)F` (stereo unspecified), the cytotoxicity at 70.5 h was -7.43%.

Turning to `COc1ccc(CN(C)C(=O)NCc2c(C)cc(C)[nH]c2=O)cc1`, the cytotoxicity at 70.5 h was -4.65%.

On to `CCc1ncncc1C(=O)N1CCN(Cc2c(C)noc2C)CC1`, for which the cytotoxicity at 70.5 h is -11.6%.

For the compound `CCN1CCN(C(=O)CCc2c(C)noc2Cl)CC1`, the cytotoxicity at 70.5 h was -13.8%.

Take `Cc1nnc2n1CCN(C(=O)c1cc(C)n(-c3ccccn3)c1C)C2`: the cytotoxicity at 70.5 h was -14%.

Take `Cc1cccc(-n2c(C)cc(C(=O)N3CCn4c(C)nnc4C3)c2C)c1`: the cytotoxicity at 70.5 h is -1.57%.

In the case of `Cc1noc(Cl)c1CCC(=O)N1CCC(CC(N)=O)CC1`, the cytotoxicity at 70.5 h was -4.77%.

Turning to `CCc1c(C(=O)N2CCN(CC(N)=O)CC2)cnn1C(C)(C)C`, the cytotoxicity at 70.5 h was -2.02%.

In the case of `Cn1cnc2c1CCN(Cc1nc(COc3ccc(F)cc3)no1)C2`, the cytotoxicity at 70.5 h was 10.6%.

Turning to `Cc1nc(C)n(CC2CCCN2CC(=O)Nc2cc(C(C)C)no2)n1` (stereo unspecified), the cytotoxicity at 70.5 h is -13.1%.

In the case of `Cc1nc2n(n1)CC(NCc1cc(Cl)c3c(c1)OCCCO3)CC2` (stereo unspecified), the cytotoxicity at 70.5 h is -6.52%.

As for `CN(Cc1ccco1)C(=O)[C@H]1CSCN1C(=O)OC(C)(C)C`, the cytotoxicity at 70.5 h is -1.49%.

With `Cc1nn(C)c(C)c1C1CCCN1C(=O)CCc1cscn1` (stereo unspecified), the cytotoxicity at 70.5 h was -6.08%.

For the compound `COc1cc(CNC2CCc3nc(C(C)C)nn3C2)cc2c1OCO2` (stereo unspecified), the cytotoxicity at 70.5 h was -13.1%.

Turning to `CSCC(=O)N1CCCC(n2ccnc2C(C)C)C1` (stereo unspecified), the cytotoxicity at 70.5 h is -7.04%.

With `CC(C)c1nccn1C1CCCN(C(=O)c2cnn(C)c2C2CC2)C1` (stereo unspecified), the cytotoxicity at 70.5 h turned out to be 5.54%.

`CN(CCCOc1ccccc1)C(=O)CN1CCc2cncnc2C1`: the cytotoxicity at 70.5 h was determined as 8.28%.

In the case of `O=C(CN1CCc2cncnc2C1)NCCOc1ccccc1`, the cytotoxicity at 70.5 h was -5.53%.

Turning to `O=C(CC1CCCO1)NCc1ccccc1Cn1cncn1` (stereo unspecified), the cytotoxicity at 70.5 h is -3.75%.

On to `CCN(CC)c1ccc(C(=O)N(C)Cc2c(C)noc2C)cn1`, for which the cytotoxicity at 70.5 h is -3.66%.

As to `N#Cc1ccc(CN2CCC(c3ccnn3CCO)CC2)cc1`, the cytotoxicity at 70.5 h is -2.2%.

As for `Cc1noc(C)c1CNC(=O)c1ccc(NC2CC2)nc1`, the cytotoxicity at 70.5 h came out at 5.69%.

On to `CCc1nc(C(=O)N2CCCC2)nn1-c1ccccc1Cl`, for which the cytotoxicity at 70.5 h was 10.2%.

Take `Cc1nccc(-c2cccc(NCC(=O)N3CCCCCCC3)c2)n1`: the cytotoxicity at 70.5 h worked out at 17.3%.

Turning to `Cc1cc(C)n(CC2CN(CCOc3cccc(C#N)c3)CCO2)n1` (stereo unspecified), the cytotoxicity at 70.5 h came to 0.061%.

Regarding `Cc1cc(C)c(CNC(=O)NCC(O)c2cccc(F)c2)c(=O)[nH]1` (stereo unspecified), the cytotoxicity at 70.5 h was -3.53%.

For the compound `CCc1ncc(CN(C)C(=O)Nc2cccnc2N2CCCC2)s1`, the cytotoxicity at 70.5 h is 0.712%.

Regarding `CC(C)c1nccn1C1CCCN(C(=O)c2cnc[nH]2)C1` (stereo unspecified), the cytotoxicity at 70.5 h was determined as 3.72%.

In the case of `O=C1COc2ccc(C(=O)NS(=O)(=O)c3ccc(F)cc3F)cc2N1`, the cytotoxicity at 70.5 h was -0.102%.

Consider `CC(C)c1n[nH]c(C2CN(C(=O)c3cccc4cn[nH]c34)CCO2)n1` (stereo unspecified), for which the cytotoxicity at 70.5 h is 3.42%.

In the case of `CC(C)c1n[nH]c(C2CN(C(=O)c3csnn3)CCO2)n1` (stereo unspecified), the cytotoxicity at 70.5 h was -3.07%.

On to `CC(OCC1CC1)C(=O)N1CCCN(c2ncccc2C#N)CC1` (stereo unspecified), for which the cytotoxicity at 70.5 h worked out at 15.5%.

On to `CC(C)c1nn(C)c(N(C)C)c1CNCc1cccc(CN(C)C)c1`, for which the cytotoxicity at 70.5 h turned out to be 0.875%.
